Structures can show the parent of a compound that is named as a salt.

T1 sequence (P19156 2-1034 limits assumed): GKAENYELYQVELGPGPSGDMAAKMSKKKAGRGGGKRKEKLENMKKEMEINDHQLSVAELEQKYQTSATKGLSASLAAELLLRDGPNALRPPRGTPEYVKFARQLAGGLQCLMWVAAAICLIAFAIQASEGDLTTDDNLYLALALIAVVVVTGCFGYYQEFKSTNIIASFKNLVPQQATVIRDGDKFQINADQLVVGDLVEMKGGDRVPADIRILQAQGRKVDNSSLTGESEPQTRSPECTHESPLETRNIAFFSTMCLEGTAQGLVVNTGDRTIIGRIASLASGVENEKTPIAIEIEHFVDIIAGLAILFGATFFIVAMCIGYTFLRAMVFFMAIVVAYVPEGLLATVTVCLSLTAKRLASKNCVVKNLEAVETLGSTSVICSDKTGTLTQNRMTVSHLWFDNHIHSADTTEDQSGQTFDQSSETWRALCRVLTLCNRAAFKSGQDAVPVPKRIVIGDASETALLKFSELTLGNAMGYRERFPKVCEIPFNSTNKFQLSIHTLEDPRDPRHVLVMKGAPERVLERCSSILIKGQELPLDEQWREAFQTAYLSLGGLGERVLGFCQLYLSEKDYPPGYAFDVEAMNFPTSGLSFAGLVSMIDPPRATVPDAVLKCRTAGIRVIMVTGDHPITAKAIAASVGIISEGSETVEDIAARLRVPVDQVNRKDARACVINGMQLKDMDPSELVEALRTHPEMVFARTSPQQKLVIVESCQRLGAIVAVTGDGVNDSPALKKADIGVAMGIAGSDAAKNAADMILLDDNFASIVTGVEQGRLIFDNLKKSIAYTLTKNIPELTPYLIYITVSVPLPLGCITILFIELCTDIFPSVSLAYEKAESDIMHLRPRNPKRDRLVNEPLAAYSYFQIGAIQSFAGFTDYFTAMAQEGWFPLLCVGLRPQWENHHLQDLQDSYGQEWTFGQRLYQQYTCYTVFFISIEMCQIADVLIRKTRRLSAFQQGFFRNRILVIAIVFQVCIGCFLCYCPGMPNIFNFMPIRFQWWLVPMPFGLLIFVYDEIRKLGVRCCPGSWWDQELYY
T1 sequence (P18434 whole entry partner): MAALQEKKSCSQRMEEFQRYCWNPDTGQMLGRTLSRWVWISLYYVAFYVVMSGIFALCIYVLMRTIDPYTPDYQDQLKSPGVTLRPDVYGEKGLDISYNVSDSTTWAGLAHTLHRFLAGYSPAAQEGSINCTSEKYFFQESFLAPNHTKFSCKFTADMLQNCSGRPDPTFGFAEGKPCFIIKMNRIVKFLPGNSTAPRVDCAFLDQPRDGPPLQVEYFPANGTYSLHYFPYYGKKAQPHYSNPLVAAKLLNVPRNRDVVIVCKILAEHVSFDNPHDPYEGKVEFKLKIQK

This assay addresses T1, H^+/K^+-ATPase (Sus scrofa, UniProt P19156).
T1 construct: used as an enzyme source of the in vitro enzyme reaction assay of proton pump; from tissue; host or cells: hog gastric fundic mucosa (membrane vesicles, lyophilized)
Nature of the assay: Inhibitory effects on proton pump (H^+/K^+-ATPase) activity, hog gastric vesicles. The assay is classed as biochemical. Conditions: K^+ stimulated H^+/K^+-ATPase activity, hog gastric vesicle, Pi measured at 620 nm. In outline:
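Lyophilized hog gastric vesicles in Pipes/Tris pH 6.1 were preincubated 5 min with compounds (1% DMSO), then run with ATP for 30 min at 37 °C. Released phosphate was measured by malachite green at 620 nm; K^+-stimulated activity taken as the difference between reactions with and without K^+.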
As a reminder, the IC50 is the concentration that gives 50% inhibition. Low values mean greater potency in that assay, high ones weaker potency in that assay. For `Cc1c(C)n(CC2CCC2)c2c(OCc3cc(F)cc(F)c3)ccnc12` [Example 179, 1-cyclobutylmethyl-7-(3,5-difluorobenzyloxy)-2,3-dimethyl-1H-pyrrolo[3,2-b]pyridine hydrochloride], the IC50 came to 570 nM.
The value for `Cc1c(C)n(CC2CC2)c2c(OCc3cc(F)cc(F)c3)ccnc12` [Example 180, 1-cyclopropylmethyl-7-(3,5-difluorobenzyloxy)-2,3-dimethyl-1H-pyrrolo[3,2-b]pyridine hydrochloride] was 830 nM; that for `COCCn1c(C)c(C)c2nccc(OCc3cc(F)cc(F)c3)c21` [Example 181, 7-(3,5-difluorobenzyloxy)-1-(2-methoxyethyl)-2,3-dimethyl-1H-pyrrolo[3,2-b]pyridine hydrochloride] was 4710 nM; that for `CCCn1c(C)c(C)c2nccc(OCc3cc(F)cc(F)c3)c21` [Example 182, 7-(3,5-difluorobenzyloxy)-2,3-dimethyl-1-propyl-1H-pyrrolo[3,2-b]pyridine hydrochloride] was 3880 nM.
In the case of `Cc1c(C)n(Cc2ccc(Cl)cc2)c2c(OCc3cc(F)cc(F)c3)ccnc12` [Example 183, 1-(4-chlorobenzyl)-7-(3,5-difluorobenzyloxy)-2,3-dimethyl-1H-pyrrolo[3,2-b]pyridine hydrochloride], the IC50 is 1210 nM.
To `Cc1c(C)n(Cc2ccc(F)cc2)c2c(OCc3cc(F)cc(F)c3)ccnc12` [Example 184, 7-(3,5-difluorobenzyloxy)-1-(4-fluorobenzyl)-2,3-dimethyl-1H-pyrrolo[3,2-b]pyridine hydrochloride] belongs 1070 nM; to `Cc1c(C)n(Cc2ccccc2)c2c(OCc3cc(F)cc(F)c3)ccnc12` [Example 195, 1-benzyl-7-(3,5-difluorobenzyloxy)-2,3-dimethyl-1H-pyrrolo[3,2-b]pyridine hydrochloride], 680 nM; to `Cc1ccc(Cn2c(C)c(C)c3nccc(OCc4cc(F)cc(F)c4)c32)cc1` [Example 196, 7-(3,5-difluorobenzyloxy)-1-(4-methylbenzyl)-2,3-dimethyl-1H-pyrrolo[3,2-b]pyridine hydrochloride], 380 nM.
To `Cc1ccc(Cn2c(C)c(C)c3nccc(OCc4ccc(C(F)(F)F)cc4)c32)cc1` [Example 200, 2,3-dimethyl-1-(4-methylbenzyl)-7-(4-trifluoromethylbenzyloxy)-1H-pyrrolo[3,2-b]pyridine hydrochloride] belongs 600 nM; to `COc1cccc(Cn2c(C)c(C)c3nccc(OCc4ccc(C(F)(F)F)cc4)c32)c1` [Example 201, 1-(3-methoxybenzyl)-2,3-dimethyl-7-(4-trifluoromethylbenzyloxy)-1H-pyrrolo[3,2-b]pyridine hydrochloride], 680 nM.
To `Cc1[nH]c2c(OCc3ccc(Br)cc3)ccnc2c1C` [Example 218, 7-(4-bromobenzyloxy)-2,3-dimethyl-1H-pyrrolo[3,2-b]pyridine] belongs 3280 nM.
Molecule `Cc1c(C)n(Cc2ccccc2)c2c(OCc3ccc(Br)cc3)ccnc12` [Example 219, 1-benzyl-7-(4-bromobenzyloxy)-2,3-dimethyl-1H-pyrrolo[3,2-b]pyridine hydrochloride] gave an IC50 of 60 nM.
To `C=CCn1c(C)c(C)c2nccc(OCc3ccc(Br)cc3)c21` [Example 220, 1-allyl-7-(4-bromobenzyloxy)-2,3-dimethyl-1H-pyrrolo[3,2-b]pyridine hydrochloride] belongs 50 nM; to `Cc1c(C)n(Cc2ccc(F)cc2)c2c(OCc3ccc(Br)cc3)ccnc12` [Example 221, 7-(4-bromobenzyloxy)-1-(4-fluorobenzyl)-2,3-dimethyl-1H-pyrrolo[3,2-b]pyridine hydrochloride], 180 nM.
In turn, `Cc1c(C)n(Cc2cccc(F)c2)c2c(OCc3ccc(Br)cc3)ccnc12` [Example 222, 7-(4-bromobenzyloxy)-1-(3-fluorobenzyl)-2,3-dimethyl-1H-pyrrolo[3,2-b]pyridine hydrochloride] showed an IC50 of 60 nM.
To `Cc1cccc(Cn2c(C)c(C)c3nccc(OCc4ccc(Br)cc4)c32)c1` [Example 223, 7-(4-bromobenzyloxy)-2,3-dimethyl-1-(3-methylbenzyl)-1H-pyrrolo[3,2-b]pyridine hydrochloride] belongs 1210 nM.
The value for `Cc1ccc(Cn2c(C)c(C)c3nccc(OCc4ccc(Br)cc4)c32)cc1` [Example 224, 7-(4-bromobenzyloxy)-2,3-dimethyl-1-(4-methylbenzyl)-1H-pyrrolo[3,2-b]pyridine hydrochloride] was 120 nM.
To `Cc1c(C)n(Cc2ccccc2F)c2c(OCc3ccc(Br)cc3)ccnc12` [Example 225, 7-(4-bromobenzyloxy)-1-(2-fluorobenzyl)-2,3-dimethyl-1H-pyrrolo[3,2-b]pyridine hydrochloride] belongs 620 nM; to `Cc1c(C)n(Cc2cccc(Cl)c2)c2c(OCc3ccc(Br)cc3)ccnc12` [Example 226, 7-(4-bromobenzyloxy)-1-(3-chlorobenzyl)-2,3-dimethyl-1H-pyrrolo[3,2-b]pyridine hydrochloride], 450 nM.
`Cc1c(C)n(CC2CCC2)c2c(OCc3ccc(Br)cc3)ccnc12` [Example 227, 7-(4-bromobenzyloxy)-1-cyclobutylmethyl-2,3-dimethyl-1H-pyrrolo[3,2-b]pyridine hydrochloride]: the IC50 came out at 90 nM.
To `Cc1c(C)n(CC(C)C)c2c(OCc3ccc(Br)cc3)ccnc12` [Example 228, 7-(4-bromobenzyloxy)-1-isobutyl-2,3-dimethyl-1H-pyrrolo[3,2-b]pyridine hydrochloride] belongs 30 nM.
To `CCCn1c(C)c(C)c2nccc(OCc3ccc(Br)cc3)c21` [Example 229, 7-(4-bromobenzyloxy)-2,3-dimethyl-1-propyl-1H-pyrrolo[3,2-b]pyridine hydrochloride] belongs 70 nM.
The value for `C=CCn1c(C)c(C)c2nccc(NCc3ccc(F)cc3)c21` [Example 254, N-(1-allyl-2,3-dimethyl-1H-pyrrolo[3,2-b]pyridin-7-yl)-4-fluorobenzylamine hydrochloride] was 210 nM; that for `Cc1c(C)n(CC2CC2)c2c(NCc3ccc(F)cc3)ccnc12` [Example 255, N-(1-cyclopropylmethyl-2,3-dimethyl-1H-pyrrolo[3,2-b]pyridin-7-yl)-4-fluorobenzylamine hydrochloride] was 550 nM.
As for `COCCn1c(C)c(C)c2nccc(NCc3ccc(F)cc3)c21` [Example 256, N-[1-(2-methoxyethyl)-2,3-dimethyl-1H-pyrrolo[3,2-b]pyridin-7-yl]-4-fluorobenzylamine hydrochloride], the IC50 was 2080 nM.
Molecule `CCCn1c(C)c(C)c2nccc(NCc3ccc(F)cc3)c21` [Example 260, N-(2,3-dimethyl-1-propyl-1H-pyrrolo[3,2-b]pyridin-7-yl)-4-fluorobenzylamine hydrochloride] gave an IC50 of 1210 nM.
Regarding `Cc1c(C)n(Cc2ccccc2)c2c(NCc3ccc(F)cc3)ccnc12` [Example 261, N-(1-benzyl-2,3-dimethyl-1H-pyrrolo[3,2-b]pyridin-7-yl)-4-fluorobenzylamine hydrochloride], the IC50 was 2060 nM.
The value for `Cc1ccc(Cn2c(C)c(C)c3nccc(NCc4ccc(F)cc4)c32)cc1` [Example 263, N-[1-(4-methylbenzyl)-2,3-dimethyl-1H-pyrrolo[3,2-b]pyridin-7-yl]-4-fluorobenzylamine hydrochloride] was 1450 nM.

(Values after patent US7642269B2, “Pyrrolo[3,2-B]pyridine derivatives and processes for the preparation thereof” (Yuhan Corporation, priority 2005, dated 2010).)
